In PubChem BioAssay AID232 (DTP/NCI, 2004):
Several values for one entry are separate records, joined by “and”; a condition that tells them apart may be missing. Equal values may be shown once. Inconclusive results and toxic doses are left out. Numbered stars: 1 amine (or outer) side, 2 acyl side, 3 side chain; on linkers, the order of the positions; unused ones are H or OH. Bridge positions count the residues as written; N and C are the ends. Square brackets hold non-standard residues; d marks the D form. Peptide text beside a SMILES is read from it. I, II: the chains in the order shown. Actinocin(9to1) = Cc1c2oc3c(C)ccc(C(=O)[*:1])c3nc-2c(C(=O)[*:2])c(N)c1=O; aThr = C[C@H](O)[C@H](N)C(=O)O; NMeV = CN[C@H](C(=O)O)C(C)C; Sar = CNCC(=O)O

Tested on: Gardner 6C3HED lymphosarcoma ip, C3AKF1 mice, survival T/C
Experiment: NCI In Vivo Anticancer Drug Screen. Data for tumor model Lymphosarcoma Gardner 6C3HED (intraperitoneal) in C3AKF1 (CHKRF1) mice
Settings: endpoint: survival time, mean or median, schedule: Q01DX010 (ip), higher = longer survival
Protocol: The antitumor activity of compounds was measured in mice bearing transplantable tumors. Survival or tumor size were measured and the results are expressed as the measurement made in the treated group (T) divided by the measurement made in the vehicle treated control group (C). The tumor model used in this assay is Lymphosarcoma Gardner 6C3HED (intraperitoneal) in C3AKF1 (CHKRF1) mice

[1] = dose: 0.13 mg/kg/injection, vehicle: saline
[2] = dose: 12.5 mg/kg/injection, vehicle: saline
[3] = dose: 25.0 mg/kg/injection, vehicle: saline
[4] = dose: 50.0 mg/kg/injection, vehicle: saline
[5] = dose: 8.0 mg/kg/injection, vehicle: saline
[6] = dose: 10.0 mg/kg/injection, vehicle: saline
[7] = dose: 16.0 mg/kg/injection, vehicle: saline
[8] = dose: 18.8 mg/kg/injection, vehicle: saline
[9] = dose: 37.5 mg/kg/injection, vehicle: saline
[10] = dose: 75.0 mg/kg/injection, vehicle: saline
[11] = dose: 150.0 mg/kg/injection, vehicle: saline
[12] = dose: 20.0 mg/kg/injection, vehicle: saline
[13] = dose: 40.0 mg/kg/injection, vehicle: saline
[14] = dose: 0.25 mg/kg/injection, vehicle: saline
[15] = dose: 0.5 mg/kg/injection, vehicle: saline
[16] = dose: 1.0 mg/kg/injection, vehicle: saline
[17] = dose: 6.25 mg/kg/injection, vehicle: saline
[18] = dose: 3.13 mg/kg/injection, vehicle: saline
[19] = dose: 2.5 mg/kg/injection, vehicle: saline
[20] = dose: 5.0 mg/kg/injection, vehicle: saline
[21] = dose: 62.5 mg/kg/injection, vehicle: saline

O[C@H](CN1CC1)[C@@H](O)CN1CC1
T/C (dose: 62.5 micrograms/kg/injection, vehicle: saline): 96 % of control | T/C (dose: 125.0 micrograms/kg/injection, vehicle: saline): 92 % of control | T/C (dose: 250.0 micrograms/kg/injection, vehicle: saline): 155 % of control | T/C (dose: 500.0 micrograms/kg/injection, vehicle: saline): 151 % of control

CC[C@]1(O)C[C@H]2CN(CCc3c([nH]c4ccccc34)[C@@](C(=O)OC)(c3cc4c(cc3OC)N(C=O)[C@H]3[C@@](O)(C(=O)OC)[C@H](OC(C)=O)[C@]5(CC)C=CCN6CC[C@]43[C@@H]65)C2)C1
T/C (dose: 0.12 mg/kg/injection, vehicle: saline): 250 % of control | T/C [1]: 285 % of control and 300 % of control

CC(=O)Nc1ccc2nc3ccc(NC(C)=O)cc3[n+](-c3ccccc3)c2c1
T/C [2]: 111 % of control | T/C [3]: 107 % of control | T/C [4]: 103 % of control | T/C (dose: 100.0 mg/kg/injection, vehicle: saline): 103 % of control

NC(Cc1ccc(N(CCCl)CCCl)cc1)C(=O)O (stereo not drawn)
T/C [5]: 160 % of control | T/C [6]: 103 % of control | T/C [7]: 100 % of control and 105 % of control

Cc1c2oc3c(C)ccc(C(=O)N[C@@H]4C(=O)N[C@H](C(C)C)C(=O)N5CCC[C@H]5C(=O)N(C)CC(=O)N(C)[C@@H](C(C)C)C(=O)O[C@H]4C)c3nc-2c(C(=O)N[C@@H]2C(=O)N[C@H](C(C)C)C(=O)N3CCC[C@H]3C(=O)N(C)CC(=O)N(C)[C@@H](C(C)C)C(=O)O[C@H]2C)c(N)c1=O (I: [aThr][dV]P[Sar][NMeV] / II: [aThr][dV]P[Sar][NMeV]; ester I:1-I:C, II:1-II:C; linker I:N-II:N via Actinocin(9to1))
T/C (dose: 0.01 mg/kg/injection, vehicle: acid diluted with saline): 100 % of control and 110 % of control | T/C (dose: 0.03 mg/kg/injection, vehicle: acid diluted with saline): 120 % of control

CS(=O)(=O)OCCCl
T/C [8]: 100 % of control | T/C [9]: 100 % of control | T/C [10]: 95 % of control | T/C [11]: 100 % of control

OCC1OC(n2cnc3c(=S)nc[nH]c32)C(O)C1O (stereo not drawn)
T/C [12]: 90 % of control and 95 % of control | T/C [13]: 86 % of control | T/C (dose: 80.0 mg/kg/injection, vehicle: saline): 90 % of control | T/C (dose: 160.0 mg/kg/injection, vehicle: saline): 86 % of control and 90 % of control

CCN(CC)CCNc1ccc(C)c2sc3ccccc3c(=O)c12
T/C [2]: 100 % of control | T/C [3]: 114 % of control | T/C [4]: 91 % of control and 114 % of control

CSCS(=O)C[C@H](CO)NC(=O)/C=C/c1c(C)[nH]c(=O)[nH]c1=O (stereo partly drawn)
T/C [1]: 87 % of control | T/C [14]: 90 % of control | T/C [15]: 90 % of control and 91 % of control

Clc1ncnc2nc[nH]c12
T/C (dose: 7.5 mg/kg/injection, vehicle: saline): 87 % of control and 95 % of control | T/C (dose: 15.0 mg/kg/injection, vehicle: saline): 95 % of control | T/C (dose: 30.0 mg/kg/injection, vehicle: saline): 95 % of control

C[C@H](N)C(=O)N[C@@H]1[C@H]2C(=C(O)C[C@@H](O)[C@@H]2O)C(=O)O[C@@H]1C
T/C [11]: 110 % of control | T/C (dose: 300.0 mg/kg/injection, vehicle: saline): 110 % of control and 115 % of control | T/C (dose: 600.0 mg/kg/injection, vehicle: saline): 120 % of control | T/C (dose: 1200.0 mg/kg/injection, vehicle: saline): 115 % of control and 120 % of control

C1CN1c1nc(N2CC2)nc(N2CC2)n1
T/C [1]: 100 % of control and 105 % of control | T/C [14]: 110 % of control and 115 % of control | T/C [15]: 120 % of control | T/C [16]: 95 % of control | T/C (dose: 1.5 mg/kg/injection, vehicle: saline): 110 % of control

O=C(Nc1ccc(C2=NCCCN2)cc1)c1ccc(NC(=O)c2ccc(C3=NCCCN3)cc2)cc1
T/C (dose: 2.0 mg/kg/injection, vehicle: other): 183 % of control and 250 % of control | T/C (dose: 4.0 mg/kg/injection, vehicle: other): 220 % of control and 300 % of control | T/C (dose: 8.0 mg/kg/injection, vehicle: other): 177 % of control and 187 % of control

O=NN(CCCl)C(=O)NCCCl
T/C [17]: 300 % of control | T/C (dose: 16.25 mg/kg/injection, vehicle: saline): 257 % of control

CCCNc1ncnc2[nH]ncc12
T/C [18]: 86 % of control and 90 % of control | T/C [17]: 90 % of control | T/C [2]: 90 % of control and 95 % of control

S=P(N1CCOCC1)(N1CC1)N1CC1
T/C [19]: 91 % of control and 100 % of control (2×) | T/C [20]: 91 % of control and 92 % of control and 104 % of control | T/C [6]: 89 % of control and 91 % of control and 104 % of control | T/C [12]: 108 % of control and 121 % of control

c1ccc(CNc2ncnc3[nH]ncc23)cc1
T/C [5]: 100 % of control and 119 % of control | T/C [7]: 104 % of control and 105 % of control | T/C (dose: 32.0 mg/kg/injection, vehicle: saline): 90 % of control and 95 % of control | T/C (dose: 64.0 mg/kg/injection, vehicle: saline): 90 % of control and 95 % of control

O=c1[nH]cc(F)c(=O)[nH]1
T/C [6]: 158 % of control | T/C [12]: 295 % of control | T/C [13]: 87 % of control

Oc1cc(CN(CCCl)CCCl)c(O)cc1CN(CCCl)CCCl
T/C (dose: 0.63 mg/kg/injection, vehicle: saline): 113 % of control | T/C [19]: 168 % of control | T/C [20]: 91 % of control and 122 % of control

N#[N+]c1cnc([O-])[nH]c1=O
T/C [19]: 175 % of control | T/C [20]: 158 % of control | T/C [6]: 162 % of control

CN(C)c1nc(N(C)C)nc(N(C)C)n1
T/C [8]: 104 % of control | T/C [9]: 104 % of control | T/C [10]: 95 % of control and 100 % of control | T/C [11]: 100 % of control and 104 % of control

NC(Cc1c[nH]c2ccc(N(CCCl)CCCl)cc12)C(=O)O (stereo not drawn)
T/C [15]: 159 % of control | T/C [16]: 159 % of control and 181 % of control | T/C (dose: 2.0 mg/kg/injection, vehicle: saline): 195 % of control and 231 % of control

CCCCNc1ncnc2c1cnn2C
T/C (dose: 31.3 mg/kg/injection, vehicle: saline): 100 % of control and 104 % of control | T/C [21]: 95 % of control and 100 % of control

O=c1cnn(C2OC(CO)C(O)C2O)c(=O)[nH]1 (stereo not drawn)
T/C (dose: 200.0 mg/kg/injection, vehicle: saline): 105 % of control and 115 % of control | T/C (dose: 400.0 mg/kg/injection, vehicle: saline): 115 % of control | T/C (dose: 800.0 mg/kg/injection, vehicle: saline): 110 % of control and 120 % of control | T/C (dose: 1600.0 mg/kg/injection, vehicle: saline): 95 % of control

N=C(N)c1ccc(Nc2ccc(C(=N)N)cc2)cc1
T/C (dose: 3.0 mg/kg/injection, vehicle: saline): 103 % of control | T/C (dose: 6.0 mg/kg/injection, vehicle: saline): 96 % of control | T/C (dose: 12.0 mg/kg/injection, vehicle: saline): 96 % of control

CC(=O)N(C)C
T/C [21]: 86 % of control and 90 % of control | T/C (dose: 125.0 mg/kg/injection, vehicle: saline): 90 % of control and 95 % of control | T/C (dose: 250.0 mg/kg/injection, vehicle: saline): 95 % of control and 100 % of control | T/C (dose: 500.0 mg/kg/injection, vehicle: saline): 100 % of control

CS(=O)(=O)OCCCCOS(C)(=O)=O
T/C (dose: 1.56 mg/kg/injection, vehicle: saline): 100 % of control | T/C [18]: 100 % of control and 104 % of control
